Measurements taken from ChEMBL document CHEMBL4507311, “Data for DCP probe A-1155463” (2021).

Key:
[1] = target: Serine/threonine-protein kinase 32C (Homo sapiens) (UniProt Q86UX6); details: Compound concentration 1000.0 nM
[2] = target: Bone morphogenetic protein receptor type-1B (Homo sapiens) (UniProt O00238); details: Compound concentration 1000.0 nM
[3] = target: Tyrosine-protein kinase Fes/Fps (Homo sapiens) (UniProt P07332); details: Compound concentration 1000.0 nM
[4] = target: Serine/threonine-protein kinase Chk1 (Homo sapiens) (UniProt O14757); details: Compound concentration 1000.0 nM
[5] = target: cAMP-dependent protein kinase catalytic subunit alpha (Homo sapiens) (UniProt P17612); details: Compound concentration 1000.0 nM
[6] = system: Tyrosine-protein kinase ABL1 (Homo sapiens), P00519 [Y253F]; details: Compound concentration 1000.0 nM
[7] = target: Atypical kinase COQ8B, mitochondrial (Homo sapiens) (UniProt Q96D53); details: Compound concentration 1000.0 nM
[8] = target: Phosphatidylinositol 4-phosphate 5-kinase type-1 alpha (Homo sapiens) (UniProt Q99755); details: Compound concentration 1000.0 nM
[9] = target: Tyrosine-protein kinase ABL1 (Homo sapiens) (UniProt P00519); details: Compound concentration 1000.0 nM
[10] = target: Tyrosine-protein kinase JAK3 (Homo sapiens) (UniProt P52333); details: Compound concentration 1000.0 nM
[11] = target: Tyrosine-protein kinase ABL2 (Homo sapiens) (UniProt P42684); details: Compound concentration 1000.0 nM
[12] = target: Ribosomal protein S6 kinase alpha-5 (Homo sapiens) (UniProt O75582); details: Compound concentration 1000.0 nM
[13] = target: Mitogen-activated protein kinase 12 (Homo sapiens) (UniProt P53778); details: Compound concentration 1000.0 nM
[14] = target: Sigma non-opioid intracellular receptor 1 (Homo sapiens, UniProt Q99720); assay: GPCRScan assay: inhibition of Sigma 1; design: radioligand conc. used [nm] 4.0 – 5.0, parental cells HEKT
[15] = target: Testis-specific serine/threonine-protein kinase 3 (Homo sapiens) (UniProt Q96PN8); details: Compound concentration 1000.0 nM
[16] = target: Maternal embryonic leucine zipper kinase (Homo sapiens) (UniProt Q14680); details: Compound concentration 1000.0 nM
[17] = system: Fibroblast growth factor receptor 3 (Homo sapiens), P22607 [G697C]; details: Compound concentration 1000.0 nM
[18] = target: Serine/threonine-protein kinase 35 (Homo sapiens) (UniProt Q8TDR2); details: Compound concentration 1000.0 nM
[19] = target: ALK tyrosine kinase receptor (Homo sapiens) (UniProt Q9UM73); details: Compound concentration 1000.0 nM
[20] = target: Receptor-interacting serine/threonine-protein kinase 1 (Homo sapiens) (UniProt Q13546); details: Compound concentration 1000.0 nM
[21] = target: Protein-tyrosine kinase 6 (Homo sapiens) (UniProt Q13882); details: Compound concentration 1000.0 nM
[22] = target: Transient receptor potential cation channel subfamily M member 6 (Homo sapiens) (UniProt Q9BX84); details: Compound concentration 1000.0 nM
[23] = target: Ribosomal protein S6 kinase alpha-1 (Homo sapiens) (UniProt Q15418); details: Compound concentration 1000.0 nM
[24] = system: Proto-oncogene tyrosine-protein kinase receptor Ret (Homo sapiens), P07949 [M918T]; details: Compound concentration 1000.0 nM
[25] = target: Ephrin type-A receptor 5 (Homo sapiens) (UniProt P54756); details: Compound concentration 1000.0 nM
[26] = target: Mitogen-activated protein kinase 10 (Homo sapiens) (UniProt P53779); details: Compound concentration 1000.0 nM
[27] = target: Cyclin-dependent kinase 17 (Homo sapiens) (UniProt Q00537); details: Compound concentration 1000.0 nM
[28] = target: Mitogen-activated protein kinase 11 (Homo sapiens) (UniProt Q15759); details: Compound concentration 1000.0 nM
[29] = target: Fibroblast growth factor receptor 1 (Homo sapiens) (UniProt P11362); details: Compound concentration 1000.0 nM
[30] = target: Tyrosine-protein kinase HCK (Homo sapiens) (UniProt P08631); details: Compound concentration 1000.0 nM
[31] = system: Receptor-type tyrosine-protein kinase FLT3 (Homo sapiens), P36888 [UNDEFINED MUTATION]; details: Compound concentration 1000.0 nM
[32] = target: Ribosomal protein S6 kinase alpha-2 (Homo sapiens) (UniProt Q15349); details: Compound concentration 1000.0 nM
[33] = target: Tyrosine-protein kinase JAK1 (Homo sapiens) (UniProt P23458); details: Compound concentration 1000.0 nM
[34] = target: Serine/threonine-protein kinase RIO1 (Homo sapiens) (UniProt Q9BRS2); details: Compound concentration 1000.0 nM
[35] = system: Proto-oncogene tyrosine-protein kinase receptor Ret (Homo sapiens), P07949 [V804L]; details: Compound concentration 1000.0 nM
[36] = target: Receptor-type tyrosine-protein kinase FLT3 (Homo sapiens) (UniProt P36888); details: Compound concentration 1000.0 nM
[37] = target: Serine/threonine-protein kinase MARK1 (Homo sapiens) (UniProt Q9P0L2); details: Compound concentration 1000.0 nM
[38] = target: Ankyrin repeat and protein kinase domain-containing protein 1 (Homo sapiens) (UniProt Q8NFD2); details: Compound concentration 1000.0 nM
[39] = target: Platelet-derived growth factor receptor alpha (Homo sapiens) (UniProt P16234); details: Compound concentration 1000.0 nM
[40] = target: Glycogen synthase kinase-3 beta (Homo sapiens) (UniProt P49841); details: Compound concentration 1000.0 nM
[41] = system: Epidermal growth factor receptor (Homo sapiens), P00533 [UNDEFINED MUTATION]; details: Compound concentration 1000.0 nM
[42] = target: Casein kinase I isoform delta (Homo sapiens) (UniProt P48730); details: Compound concentration 1000.0 nM
[43] = target: Casein kinase I isoform epsilon (Homo sapiens) (UniProt P49674); details: Compound concentration 1000.0 nM
[44] = target: Myosin-IIIa (Homo sapiens) (UniProt Q8NEV4); details: Compound concentration 1000.0 nM
[45] = target: Calcium/calmodulin-dependent protein kinase type II subunit alpha (Homo sapiens) (UniProt Q9UQM7); details: Compound concentration 1000.0 nM
Sequence of Calcium/calmodulin-dependent protein kinase type II subunit alpha (Homo sapiens) (Q9UQM7 whole entry): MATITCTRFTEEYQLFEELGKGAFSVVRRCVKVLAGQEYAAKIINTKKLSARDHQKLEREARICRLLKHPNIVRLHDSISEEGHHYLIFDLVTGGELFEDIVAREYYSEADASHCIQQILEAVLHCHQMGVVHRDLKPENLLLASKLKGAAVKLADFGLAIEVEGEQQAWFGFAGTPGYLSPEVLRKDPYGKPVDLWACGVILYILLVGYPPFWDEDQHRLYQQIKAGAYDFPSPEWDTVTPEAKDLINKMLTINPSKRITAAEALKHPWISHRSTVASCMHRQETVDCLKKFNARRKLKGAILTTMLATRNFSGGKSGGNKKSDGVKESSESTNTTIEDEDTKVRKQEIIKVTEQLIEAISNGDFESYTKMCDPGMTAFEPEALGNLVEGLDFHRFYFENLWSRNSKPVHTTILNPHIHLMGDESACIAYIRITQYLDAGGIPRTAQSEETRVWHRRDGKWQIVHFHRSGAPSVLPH

Sequence of Ephrin type-A receptor 5 (Homo sapiens) (P54756 whole entry): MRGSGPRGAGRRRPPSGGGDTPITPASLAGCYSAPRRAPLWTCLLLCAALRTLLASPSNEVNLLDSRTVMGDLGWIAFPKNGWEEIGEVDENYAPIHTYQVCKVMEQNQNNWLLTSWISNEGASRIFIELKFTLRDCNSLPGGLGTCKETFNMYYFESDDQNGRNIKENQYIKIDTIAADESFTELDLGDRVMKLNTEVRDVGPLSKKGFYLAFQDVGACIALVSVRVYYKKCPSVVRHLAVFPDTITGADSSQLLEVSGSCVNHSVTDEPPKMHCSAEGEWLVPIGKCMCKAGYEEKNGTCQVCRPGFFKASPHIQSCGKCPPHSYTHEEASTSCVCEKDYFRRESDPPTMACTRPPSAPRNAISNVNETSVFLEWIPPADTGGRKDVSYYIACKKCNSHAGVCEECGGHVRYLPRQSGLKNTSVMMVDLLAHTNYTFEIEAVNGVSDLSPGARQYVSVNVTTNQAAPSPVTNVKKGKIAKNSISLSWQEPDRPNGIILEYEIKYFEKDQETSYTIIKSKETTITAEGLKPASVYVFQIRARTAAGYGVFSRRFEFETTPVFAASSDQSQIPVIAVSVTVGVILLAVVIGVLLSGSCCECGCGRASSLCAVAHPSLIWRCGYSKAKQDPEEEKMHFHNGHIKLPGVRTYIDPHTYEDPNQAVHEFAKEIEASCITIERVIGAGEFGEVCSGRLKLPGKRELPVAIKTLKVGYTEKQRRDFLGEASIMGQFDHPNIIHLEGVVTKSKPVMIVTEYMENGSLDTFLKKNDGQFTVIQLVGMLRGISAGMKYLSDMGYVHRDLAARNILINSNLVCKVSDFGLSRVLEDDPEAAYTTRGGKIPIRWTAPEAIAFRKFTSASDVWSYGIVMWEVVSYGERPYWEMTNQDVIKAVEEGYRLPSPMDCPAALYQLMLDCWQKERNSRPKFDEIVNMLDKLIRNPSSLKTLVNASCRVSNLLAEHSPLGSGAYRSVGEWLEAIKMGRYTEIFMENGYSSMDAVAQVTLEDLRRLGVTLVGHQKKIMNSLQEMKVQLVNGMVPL
Sequence of Testis-specific serine/threonine-protein kinase 3 (Homo sapiens) (Q96PN8 whole entry): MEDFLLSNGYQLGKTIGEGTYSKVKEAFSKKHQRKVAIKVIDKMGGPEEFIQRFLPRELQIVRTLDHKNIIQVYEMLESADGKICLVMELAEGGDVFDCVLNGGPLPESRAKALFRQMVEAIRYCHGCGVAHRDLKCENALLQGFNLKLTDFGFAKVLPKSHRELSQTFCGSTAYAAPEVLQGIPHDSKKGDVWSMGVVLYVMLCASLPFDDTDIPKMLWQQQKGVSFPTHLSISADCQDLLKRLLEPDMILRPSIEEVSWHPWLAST
Sequence of Bone morphogenetic protein receptor type-1B (Homo sapiens) (O00238 whole entry): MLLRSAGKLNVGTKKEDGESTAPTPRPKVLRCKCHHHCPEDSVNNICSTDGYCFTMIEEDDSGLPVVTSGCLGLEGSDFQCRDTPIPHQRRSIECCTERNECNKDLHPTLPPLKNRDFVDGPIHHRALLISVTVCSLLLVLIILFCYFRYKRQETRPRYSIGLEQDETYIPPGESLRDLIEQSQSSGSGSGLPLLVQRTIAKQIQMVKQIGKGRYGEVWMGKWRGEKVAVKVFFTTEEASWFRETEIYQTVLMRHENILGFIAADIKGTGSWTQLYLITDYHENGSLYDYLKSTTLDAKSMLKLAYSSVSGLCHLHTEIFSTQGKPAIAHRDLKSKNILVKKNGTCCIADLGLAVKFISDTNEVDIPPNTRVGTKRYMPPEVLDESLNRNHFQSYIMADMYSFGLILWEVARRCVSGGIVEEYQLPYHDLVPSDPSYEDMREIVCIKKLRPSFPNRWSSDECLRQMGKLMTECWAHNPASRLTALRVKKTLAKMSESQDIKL
Sequence of Tyrosine-protein kinase ABL2 (Homo sapiens) (P42684 whole entry): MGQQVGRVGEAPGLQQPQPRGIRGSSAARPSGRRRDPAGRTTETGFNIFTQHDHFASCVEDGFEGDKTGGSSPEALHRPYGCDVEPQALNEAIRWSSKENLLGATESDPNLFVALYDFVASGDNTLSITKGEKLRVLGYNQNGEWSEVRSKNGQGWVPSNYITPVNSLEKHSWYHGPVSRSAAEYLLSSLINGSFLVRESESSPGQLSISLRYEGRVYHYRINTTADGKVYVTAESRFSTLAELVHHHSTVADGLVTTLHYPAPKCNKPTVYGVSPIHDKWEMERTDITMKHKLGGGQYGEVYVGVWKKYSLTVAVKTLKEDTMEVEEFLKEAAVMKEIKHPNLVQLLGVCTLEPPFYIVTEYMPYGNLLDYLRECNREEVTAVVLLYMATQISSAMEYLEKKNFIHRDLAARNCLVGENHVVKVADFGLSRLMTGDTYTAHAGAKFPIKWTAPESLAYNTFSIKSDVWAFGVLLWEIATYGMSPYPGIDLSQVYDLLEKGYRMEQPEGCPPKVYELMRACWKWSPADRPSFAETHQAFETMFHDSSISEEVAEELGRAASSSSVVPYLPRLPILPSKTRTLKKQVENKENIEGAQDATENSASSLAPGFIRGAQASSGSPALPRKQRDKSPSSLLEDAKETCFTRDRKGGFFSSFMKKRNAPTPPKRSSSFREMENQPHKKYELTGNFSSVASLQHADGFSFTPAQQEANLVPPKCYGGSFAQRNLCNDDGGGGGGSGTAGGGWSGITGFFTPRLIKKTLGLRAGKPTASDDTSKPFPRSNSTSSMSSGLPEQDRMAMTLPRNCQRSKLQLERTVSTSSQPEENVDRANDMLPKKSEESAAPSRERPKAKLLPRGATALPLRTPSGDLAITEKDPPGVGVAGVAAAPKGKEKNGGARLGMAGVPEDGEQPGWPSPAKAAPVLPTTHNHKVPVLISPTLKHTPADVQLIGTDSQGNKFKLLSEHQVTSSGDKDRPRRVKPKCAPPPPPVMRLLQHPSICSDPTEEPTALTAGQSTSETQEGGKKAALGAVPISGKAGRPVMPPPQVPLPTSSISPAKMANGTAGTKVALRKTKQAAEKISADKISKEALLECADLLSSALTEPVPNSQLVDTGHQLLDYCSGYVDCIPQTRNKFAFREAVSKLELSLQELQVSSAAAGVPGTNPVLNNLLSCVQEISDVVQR
Sequence of Tyrosine-protein kinase HCK (Homo sapiens) (P08631 2-526 limits assumed): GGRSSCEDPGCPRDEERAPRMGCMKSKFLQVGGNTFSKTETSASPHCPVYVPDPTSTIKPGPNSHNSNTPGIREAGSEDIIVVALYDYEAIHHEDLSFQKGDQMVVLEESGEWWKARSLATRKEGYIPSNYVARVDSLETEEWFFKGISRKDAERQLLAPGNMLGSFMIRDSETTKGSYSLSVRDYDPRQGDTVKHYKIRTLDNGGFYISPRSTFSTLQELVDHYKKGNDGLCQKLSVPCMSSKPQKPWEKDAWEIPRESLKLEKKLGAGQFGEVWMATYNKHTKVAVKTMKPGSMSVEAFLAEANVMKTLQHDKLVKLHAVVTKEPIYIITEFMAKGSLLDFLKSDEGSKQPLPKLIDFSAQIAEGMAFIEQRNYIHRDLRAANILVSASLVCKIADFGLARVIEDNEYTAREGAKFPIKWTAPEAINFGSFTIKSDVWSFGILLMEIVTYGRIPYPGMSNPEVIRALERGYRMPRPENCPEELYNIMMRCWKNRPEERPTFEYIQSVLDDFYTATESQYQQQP
Sequence of Ankyrin repeat and protein kinase domain-containing protein 1 (Homo sapiens) (Q8NFD2 whole entry, the tested form may be a part): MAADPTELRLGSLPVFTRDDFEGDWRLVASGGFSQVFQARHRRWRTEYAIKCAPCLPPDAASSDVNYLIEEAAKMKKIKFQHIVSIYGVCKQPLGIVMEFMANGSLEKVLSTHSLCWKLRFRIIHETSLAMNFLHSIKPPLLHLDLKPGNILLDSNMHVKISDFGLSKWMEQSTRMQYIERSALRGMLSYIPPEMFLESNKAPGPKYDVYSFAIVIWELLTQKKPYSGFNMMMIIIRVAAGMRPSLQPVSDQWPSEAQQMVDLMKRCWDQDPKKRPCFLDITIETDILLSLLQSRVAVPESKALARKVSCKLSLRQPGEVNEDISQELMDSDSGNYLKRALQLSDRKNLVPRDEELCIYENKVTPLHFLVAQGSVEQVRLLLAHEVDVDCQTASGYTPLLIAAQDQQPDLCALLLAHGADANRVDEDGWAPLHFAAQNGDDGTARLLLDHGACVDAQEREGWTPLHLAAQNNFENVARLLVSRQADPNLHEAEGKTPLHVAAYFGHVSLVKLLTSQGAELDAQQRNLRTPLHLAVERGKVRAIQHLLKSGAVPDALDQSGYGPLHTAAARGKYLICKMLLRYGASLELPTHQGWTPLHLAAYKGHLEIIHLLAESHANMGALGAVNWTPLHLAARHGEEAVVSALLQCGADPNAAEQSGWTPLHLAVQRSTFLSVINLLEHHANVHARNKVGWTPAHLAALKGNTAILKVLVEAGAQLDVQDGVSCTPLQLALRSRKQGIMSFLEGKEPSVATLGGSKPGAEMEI
Sequence of Sigma non-opioid intracellular receptor 1 (Q99720 whole entry): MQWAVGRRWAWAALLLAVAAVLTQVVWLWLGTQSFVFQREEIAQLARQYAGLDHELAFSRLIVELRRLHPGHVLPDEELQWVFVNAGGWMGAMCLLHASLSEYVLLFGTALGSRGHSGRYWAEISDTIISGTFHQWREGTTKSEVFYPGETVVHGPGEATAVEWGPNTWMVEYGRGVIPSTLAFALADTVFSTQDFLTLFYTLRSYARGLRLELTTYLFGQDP

Molecule `CN(C)CC#Cc1ccc(OCCCc2sc(N3CCc4cccc(C(=O)Nc5nc6ccccc6s5)c4C3)nc2C(=O)O)c(F)c1` [A-1155463] has a residual activity [1] of 75%, a residual activity [2] of 84% and a residual activity [3] of 100%. For the same molecule, the residual activity [4] was 89%, the residual activity [5] was 89% and the residual activity [6] was 93%. For the same molecule, the residual activity [7] was 99%, the residual activity [8] was 100% and the residual activity [9] was 100%. The residual activity [10] was 58%, the residual activity [11] was 100% and the residual activity [12] was 90%. It also gave a residual activity [13] of 89%, a Ki [14] of 0.136 µM and a residual activity [15] of 84%. For the same molecule, the residual activity [16] was 78%, the residual activity [17] was 88% and the residual activity [18] was 86%. The residual activity [19] was 100%, the residual activity [20] was 92% and the residual activity [21] was 96%. It also gave a residual activity [22] of 84%, a residual activity [23] of 93% and a residual activity [24] of 100%. For the same molecule, the residual activity [25] was 98%, the residual activity [26] was 71% and the residual activity [27] was 99%. For the same molecule, the residual activity [28] was 100%, the residual activity [29] was 100% and the residual activity [30] was 100%. It also gave a residual activity [31] of 97%, a residual activity [32] of 94% and a residual activity [33] of 100%. It also gave a residual activity [34] of 91%, a residual activity [35] of 100% and a residual activity [36] of 80%. It also gave a residual activity [37] of 93%, a residual activity [38] of 69% and a residual activity [39] of 100%. It also gave a residual activity [40] of 93%, a residual activity [41] of 86% and a residual activity [42] of 95%. For the same molecule, the residual activity [43] was 86%, the residual activity [44] was 100% and the residual activity [45] was 64%.
